Source: patent US10757937B2, “Sulfonamides that activate ABA receptors” (The Regents of the University of California, priority 2014, dated 2020)
Like-named read-outs stand apart in the source and are kept apart here.

How the values were obtained:
[1] = target: T1, PYL4 (Arabidopsis thaliana, UniProt O80920); experiment: receptor-mediated PP2C (HAB1) inhibition in vitro assay; format: biochemical; details: compound at 25 μM; control without agonist = 100%
T1 construct: 6X-His; made in house; host or cells: E. coli BL21[DE3]pLysS
T1 sequence (O80920 1-207): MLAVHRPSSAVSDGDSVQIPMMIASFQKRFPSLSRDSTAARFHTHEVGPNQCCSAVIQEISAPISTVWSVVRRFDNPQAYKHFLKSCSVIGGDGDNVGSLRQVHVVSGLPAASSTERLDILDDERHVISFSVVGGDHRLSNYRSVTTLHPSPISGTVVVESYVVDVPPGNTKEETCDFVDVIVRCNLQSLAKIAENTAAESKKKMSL
T1 sequence (Q9CAJ0 23-511 partner): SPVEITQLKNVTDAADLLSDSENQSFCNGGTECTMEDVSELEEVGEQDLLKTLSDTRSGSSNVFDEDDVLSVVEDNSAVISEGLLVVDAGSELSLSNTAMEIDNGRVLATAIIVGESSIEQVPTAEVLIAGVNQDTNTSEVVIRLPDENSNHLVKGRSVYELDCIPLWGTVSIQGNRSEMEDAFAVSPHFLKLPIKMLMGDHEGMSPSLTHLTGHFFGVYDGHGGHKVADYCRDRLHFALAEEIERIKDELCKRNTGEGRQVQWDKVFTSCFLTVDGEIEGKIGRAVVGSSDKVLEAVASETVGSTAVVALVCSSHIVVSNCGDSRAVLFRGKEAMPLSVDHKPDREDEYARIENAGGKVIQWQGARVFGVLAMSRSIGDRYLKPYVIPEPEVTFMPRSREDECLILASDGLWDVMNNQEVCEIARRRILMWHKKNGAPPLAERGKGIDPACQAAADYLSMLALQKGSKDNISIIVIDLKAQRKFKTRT
Description: (§1) A family of 62 structurally related N-acyl sulfonamides (Tables I-V) were tested for ABA agonist activity using multiple receptor-mediated PP2C inhibition in vitro assays (Park et al., 2009). […] The constructs utilized for protein expression have been previously described (Okamoto et al. 2013). For constructs encoding 6X-His-fusion proteins (all receptors except PYL11), the coding sequences were of the receptors were cloned in the vector pET28, expressed in BL21[DE3]pLysS E. coli host cells at 18° C. overnight, and subsequently purified from sonicated lysates using Ni-NTA agarose (Qiagen, USA), according to the manufacturer's instructions. PYL11 was constructed as a maltose binding protein fusion in the vector pMAL-c, expressed in BL21┌DE3┐pLysS host cells and purified using amylose resin (New England Biolabs) as described by the manufacturer. Recombinant GST-HAB1 was expressed and purified as described previously (Park et al., 2009). PP2C activity assays were conducted using the fluorogenic phosphatase substrate 4-methylumbelliferyl-phosphate. Recombinant receptors and HAB1 were used to examine ligand-induced PP2C inactivation in response to multiple test compounds. Enzyme inhibition assays were conducted using the following assay conditions: 50 nM GST-PP2C, 100 mM Tris-OAc (pH 7.9), 100 mM NaCl, 1 mM MnCl2, 1% β-mercaptoethanol. […] Because of this, the ratio of each receptor used in the PP2C-inhibitions assays was established empirically as the minimum fold-excess of receptor required to elicit maximal PP2C inhibition at a saturating ABA concentration (10 μM).
(§2) Based on this criterion, we used a ratio of 2:1 receptor in the assays described herein.
(§3) Using the above assay conditions, compounds were tested at 25 μM for agonist activity on PYL4, PYL5, PYL8 and PYL9. […] Consequently, a subset of the compounds was tested at multiple concentrations against 11 receptors so that IC50 values and receptor selectivity profiles could be examined. […] Thus, the N-acylsulfonamide agonists disclosed are selective for monomeric receptors.
(§4) Additional compounds were tested for biological activity following the procedures of Example 1 with minor modifications.
(§5) For these in vitro receptor assays, the compounds listed were tested in in vitro PP2C inhibition assays with 50 uM of the test compound except for ABA (10 uM). IC50s were calculated from dose curves, but only for selected compounds.

[2] = target: T2, PYL8 (Arabidopsis thaliana, UniProt Q9FGM1); experiment: as above; format: biochemical; details: compound at 25 μM; control without agonist = 100%
T2 construct: 6X-His; made in house; host or cells: E. coli BL21[DE3]pLysS
T2 sequence (Q9FGM1 1-188): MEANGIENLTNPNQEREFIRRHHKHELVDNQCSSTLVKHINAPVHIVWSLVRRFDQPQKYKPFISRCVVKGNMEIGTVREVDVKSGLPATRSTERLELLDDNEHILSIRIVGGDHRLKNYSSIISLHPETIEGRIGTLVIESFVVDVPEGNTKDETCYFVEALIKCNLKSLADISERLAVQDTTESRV
T2 sequence (Q9CAJ0 23-511 partner): T1 sequence (Q9CAJ0 23-511 partner)
Description: as §1, §2, §3, §4, §5

[3] = target: T3, PYL9 (Arabidopsis thaliana, UniProt Q84MC7); experiment: as above; format: biochemical; details: compound at 25 μM; control without agonist = 100%
T3 construct: 6X-His; made in house; host or cells: E. coli BL21[DE3]pLysS
T3 sequence (Q84MC7 1-187): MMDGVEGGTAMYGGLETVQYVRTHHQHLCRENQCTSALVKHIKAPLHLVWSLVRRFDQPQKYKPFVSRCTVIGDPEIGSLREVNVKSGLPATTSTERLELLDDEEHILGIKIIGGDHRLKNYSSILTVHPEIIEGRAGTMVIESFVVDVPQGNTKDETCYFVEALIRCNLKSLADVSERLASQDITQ
T3 sequence (Q9CAJ0 23-511 partner): T1 sequence (Q9CAJ0 23-511 partner)
Description: as §1, §2, §3, §4, §5

[4] = target: T4, PYL5 (Arabidopsis thaliana, UniProt Q9FLB1); experiment: as above; format: biochemical; details: compound at 25 μM; control without agonist = 100%
T4 construct: 6X-His; made in house; host or cells: E. coli BL21[DE3]pLysS
T4 sequence (Q9FLB1 1-203): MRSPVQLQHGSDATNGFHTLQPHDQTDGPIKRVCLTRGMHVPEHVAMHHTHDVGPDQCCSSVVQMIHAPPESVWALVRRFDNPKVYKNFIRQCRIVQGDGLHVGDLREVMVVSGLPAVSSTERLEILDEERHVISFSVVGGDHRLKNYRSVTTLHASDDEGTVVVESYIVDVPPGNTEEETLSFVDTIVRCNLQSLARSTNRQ
T4 sequence (Q9CAJ0 23-511 partner): T1 sequence (Q9CAJ0 23-511 partner)
Description: as §1, §2, §3, §4, §5

[5] = test system: Arabidopsis seed germination and hypocotyl growth; experiment: Arabidopsis seed germination and hypocotyl growth; format: in vivo; details: − = none; for Hypocotyl Growth Inhibition / Germination Inhibition: Germination Inhibition II, tested at 10 and 50 uM; for Hypocotyl Growth Inhibition: lowest concentration that inhibited hypocotyl growth in wells where seeds germinated; for minimal effective concentration: Table VIII, tested at 10 or 50 μM, lowest inhibiting concentration; for Germination Inhibition: lowest of the two concentrations that inhibited
Description: We germinated seeds from wild type on ½× strength Murashige and Skoog salts growth medium containing either 10 or 50 μM for all 62 compounds as well as 1 μM (+)-ABA and mock controls. […] To investigate if the any of the compounds are sufficient to control vegetative ABA responses, we treated three week old Arabidopsis plants with aqueous solutions containing 0.02% Silwet and either 50 μM of selected N-acylsulfonamides, 50 μM ABA or 0.1% DMSO (the carrier solvent for the compounds tested). The leaf temperatures were subsequently examined using a thermal imaging camera 24 hours after treatment. It is well known that ABA-induced guard cell closure reduces transpiration, which leads to increases in leaf temperatures. It has been estimated that a 1° C. increase in leaf temperature correlates with a decrease in transpiration rates by approximately 50% (Sirault et al., 2009). Since guard cell aperture is the primary determinant of transpiration rates, thermal imaging is a useful way to indirectly infer relative transpiration rates and, indirectly, relative degrees of guard cell opening at the whole plant level.
as §4
For the germination inhibition experiment, the compounds were tested at 10 and 50 uM. The amounts shown are the lowest of the two concentrations that either inhibited germination or hypocotyl growth in wells where seeds germinated.
For the germination test, the compounds were tested at 1, 5, 10, 25 and 50 uM. The amounts shown are the lowest of the concentrations that either inhibited germination or hypocotyl growth in the wells where seeds germinated.

[6] = read-out: Hypocotyl Growth Inhibition
[7] = ABA at 1 μM, read-out: Germination Inhibition

| SMILES | PP2C Activity (25 μm) PYL4 [1] | PP2C Activity (25 μm) PYL8 [2] | PP2C Activity (25 μm) PYL9 [3] | PP2C Activity (25 μm) PYL5 [4] | Hypocotyl Growth Inhibition [5] | minimal effective concentration [5, 6] | Germination Inhibition [5] | minimal effective concentration [5, 7] |
| --- | --- | --- | --- | --- | --- | --- | --- | --- |
| CC(C)(C(=O)NS(=O)(=O)Cc1ccccc1)c1ccccc1 [Compound 5] | 89% | 83% | 61% | 86% | 50 µM | 50 µM | – | – |
| CC(C)(C(=O)NS(=O)(=O)Cc1ccc(C#N)cc1)c1ccccc1F [Compound 8] | 91% | 77% | 69% | 41% | 10 µM | 10 µM | 50 µM | 50 µM |
| CC(C)(C(=O)NS(=O)(=O)Cc1ccc(C#N)cc1)c1cccc(Br)c1 [Compound 9] | 91% | 58% | 47% | 43% | 10 µM | 10 µM | – | – |
| CCC(CC)(C(=O)NS(=O)(=O)Cc1ccc(C#N)cc1)c1ccc(Cl)cc1 [Compound 10] | 93% | 83% | 73% | 75% | 50 µM | 50 µM | – | – |
| Cc1ccc(C(C)(C)C(=O)NS(=O)(=O)Cc2ccc(C#N)cc2)cc1 [Compound 12] | 92% | 62% | 47% | 43% | 50 µM | 50 µM | – | – |
| CC(C)(C(=O)NS(=O)(=O)Cc1ccc(C#N)cc1)c1cccc(Cl)c1 [Compound 15] | 96% | 57% | 46% | 51% | 10 µM | 10 µM | – | – |
| CC(C)(C(=O)NS(=O)(=O)Cc1ccc(C#N)cc1)c1cccc(F)c1 [Compound 16] | 93% | 43% | 30% | 47% | 10 µM | 10 µM | 50 µM | 50 µM |
| CCC(CC)(C(=O)NS(=O)(=O)Cc1ccccc1C#N)c1ccccc1 [Compound 17] | 85% | 95% | 94% | 96% | 50 µM | 50 µM | – | – |
| COc1ccc(C(C)(C)C(=O)NS(=O)(=O)Cc2ccc(C#N)cc2)cc1 [Compound 22] | 95% | 91% | 92% | 85% | 10 µM | 10 µM | – | – |
| N#Cc1ccc(CS(=O)(=O)NC(=O)C2(c3ccccc3)CC2)cc1 [Compound 27] | 97% | 77% | 63% | 39% | 50 µM | 50 µM | – | – |
| N#Cc1ccc(CS(=O)(=O)NC(=O)C2(c3ccc(Cl)cc3)CCC2)cc1 [Compound 28] | 96% | 55% | 37% | 65% | 10 µM | 10 µM | – | – |
| N#Cc1ccc(CS(=O)(=O)NC(=O)C2(c3cccc(F)c3)CCC2)cc1 [Compound 33] | 98% | 39% | 24% | 81% | 10 µM | 10 µM | – | – |
| CC(C)(C)c1ccc(C2(C(=O)NS(=O)(=O)Cc3ccc(C#N)cc3)CC2)cc1 [Compound 34] | 95% | 103% | 107% | 99% | – | – | 50 µM | 50 µM |
